The record followed here is ChEMBL document CHEMBL1135674, “A new series of estrogen receptor modulators that display selectivity for estrogen receptor beta” (J Med Chem, 2002).

Molecules are shown by their SMILES. Active and inactive are the calls of the source. No cut-off for these calls is given here.

By EC50 is commonly meant the midpoint of the concentration-response curve. For orientation: IC50 means the concentration at which inhibition is half-maximal. The low end stands for higher potency, the high end for lower potency. As usually defined, the Ki is a measure of affinity in units of concentration, obtained from inhibition or displacement. Higher therefore signals a looser hold on the target.

For assay [1], the target named is T1, Estrogen receptor (Homo sapiens, UniProt P03372).
T1 sequence (P03372 whole entry): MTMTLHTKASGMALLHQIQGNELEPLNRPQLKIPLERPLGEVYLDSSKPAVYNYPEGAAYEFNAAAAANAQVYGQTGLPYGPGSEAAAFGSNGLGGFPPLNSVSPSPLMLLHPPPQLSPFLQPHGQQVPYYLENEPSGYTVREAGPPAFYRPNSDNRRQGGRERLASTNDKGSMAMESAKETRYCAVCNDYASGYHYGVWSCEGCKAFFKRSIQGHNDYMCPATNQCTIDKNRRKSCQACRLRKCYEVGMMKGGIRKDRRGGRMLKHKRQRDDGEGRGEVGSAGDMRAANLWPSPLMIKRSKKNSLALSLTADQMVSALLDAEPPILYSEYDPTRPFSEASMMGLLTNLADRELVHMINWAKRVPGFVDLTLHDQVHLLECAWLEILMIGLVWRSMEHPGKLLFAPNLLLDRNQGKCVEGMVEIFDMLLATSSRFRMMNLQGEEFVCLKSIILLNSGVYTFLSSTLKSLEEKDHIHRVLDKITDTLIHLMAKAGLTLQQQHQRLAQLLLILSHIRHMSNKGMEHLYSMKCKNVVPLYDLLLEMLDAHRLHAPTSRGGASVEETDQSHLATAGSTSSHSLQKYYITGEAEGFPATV

The target of assay [2] is T2, Estrogen receptor beta (Homo sapiens, UniProt Q92731).
T2 sequence (Q92731 whole entry): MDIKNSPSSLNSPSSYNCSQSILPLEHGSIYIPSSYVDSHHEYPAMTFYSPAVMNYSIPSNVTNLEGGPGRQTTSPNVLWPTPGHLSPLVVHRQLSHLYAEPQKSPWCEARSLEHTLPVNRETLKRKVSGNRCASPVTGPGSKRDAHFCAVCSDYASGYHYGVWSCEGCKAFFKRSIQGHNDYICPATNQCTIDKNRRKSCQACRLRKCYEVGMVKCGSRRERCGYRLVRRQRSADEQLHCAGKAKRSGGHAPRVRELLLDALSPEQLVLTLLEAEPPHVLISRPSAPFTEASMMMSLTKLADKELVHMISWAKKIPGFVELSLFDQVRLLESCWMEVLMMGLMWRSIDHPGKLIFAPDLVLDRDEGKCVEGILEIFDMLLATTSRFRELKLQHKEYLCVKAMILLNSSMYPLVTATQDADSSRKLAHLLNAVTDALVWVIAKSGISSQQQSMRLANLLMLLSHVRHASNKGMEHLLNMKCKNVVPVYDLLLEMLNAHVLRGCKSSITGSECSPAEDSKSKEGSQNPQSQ
Assay [3] deals with T1, Estrogen receptor. The source holds these as a separate data set.
The target of assay [4] is T1, Estrogen receptor. The source holds these as a separate data set.
For assay [5], the target named is T2, Estrogen receptor beta. This is another data set of the same source.
In assay [6] the target is T2, Estrogen receptor beta. Particulars: T47D.
Assay [7] has as its target T2, Estrogen receptor beta. Particulars: T47D, 10e-4 M.

`CN(CCCc1ccc(Cl)cc1)c1nc(NCCc2ccc(O)cc2)nc(N2CCNCC2)n1` had an EC50 at Estrogen receptor [1] of 180 nM. Further, the IC50 turned out to be 5 nM against Estrogen receptor beta [2] and 110 nM against Estrogen receptor [3]. Moreover, the Ki was found to be 300 nM on Estrogen receptor [4] and 15 nM at Estrogen receptor beta [5]. Moreover, the IA result on Estrogen receptor beta [6] is “inactive”.
Regarding `O=C(c1ccc(OCCN2CCCCC2)cc1)c1c(-c2ccc(O)cc2)sc2cc(O)ccc12`, the IA entry at Estrogen receptor beta [7] was “inactive”.
